Laboratory results taken from the kinase profiling compilation of Christmann-Franck et al. (2016).
Several values for one entry are separate records, joined by “and”; a condition that tells them apart may be missing. Equal entries are not always repeated.

Assays:
Assay in all cases: radiometric filter-binding kinase assay, Kinase HotSpot
Conditions in all cases: compound 0.5 µM; ATP 10 µM
TBK1 (human) = TBK1 (human) (UniProt Q9UHD2)
HCK (human) = HCK (human) (UniProt P08631)
CSNK1A1 (human) = CSNK1A1 (human) (UniProt P48729)
PTK2 (human) = PTK2 (human) (UniProt Q05397)
PRKCZ (human) = PRKCZ (human) (UniProt Q05513)
NLK (human) = NLK (human) (UniProt Q9UBE8)
CAMK1G (human) = CAMK1G (human) (UniProt Q96NX5)
Chain of CAMK1G (human) (Q96NX5 whole entry, looked up): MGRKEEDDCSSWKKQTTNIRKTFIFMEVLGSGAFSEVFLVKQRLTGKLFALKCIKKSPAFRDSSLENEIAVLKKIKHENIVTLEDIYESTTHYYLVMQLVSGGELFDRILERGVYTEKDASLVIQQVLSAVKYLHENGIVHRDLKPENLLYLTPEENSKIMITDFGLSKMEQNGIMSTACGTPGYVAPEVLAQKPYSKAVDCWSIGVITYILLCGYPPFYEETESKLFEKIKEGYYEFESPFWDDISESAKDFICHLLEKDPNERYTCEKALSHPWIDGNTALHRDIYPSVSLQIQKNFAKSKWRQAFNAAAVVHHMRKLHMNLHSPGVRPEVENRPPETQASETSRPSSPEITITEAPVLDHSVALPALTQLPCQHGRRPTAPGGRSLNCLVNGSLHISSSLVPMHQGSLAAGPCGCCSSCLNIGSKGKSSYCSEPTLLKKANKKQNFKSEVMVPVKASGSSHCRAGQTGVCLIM

PDGFRA (human) = PDGFRA (human) (UniProt P16234)
NTRK1 (human) = NTRK1 (human) (UniProt P04629)
NEK11 (human) = NEK11 (human) (UniProt Q8NG66)
DYRK1B (human) = DYRK1B (human) (UniProt Q9Y463)
Chain of DYRK1B (human) (Q9Y463 whole entry, looked up): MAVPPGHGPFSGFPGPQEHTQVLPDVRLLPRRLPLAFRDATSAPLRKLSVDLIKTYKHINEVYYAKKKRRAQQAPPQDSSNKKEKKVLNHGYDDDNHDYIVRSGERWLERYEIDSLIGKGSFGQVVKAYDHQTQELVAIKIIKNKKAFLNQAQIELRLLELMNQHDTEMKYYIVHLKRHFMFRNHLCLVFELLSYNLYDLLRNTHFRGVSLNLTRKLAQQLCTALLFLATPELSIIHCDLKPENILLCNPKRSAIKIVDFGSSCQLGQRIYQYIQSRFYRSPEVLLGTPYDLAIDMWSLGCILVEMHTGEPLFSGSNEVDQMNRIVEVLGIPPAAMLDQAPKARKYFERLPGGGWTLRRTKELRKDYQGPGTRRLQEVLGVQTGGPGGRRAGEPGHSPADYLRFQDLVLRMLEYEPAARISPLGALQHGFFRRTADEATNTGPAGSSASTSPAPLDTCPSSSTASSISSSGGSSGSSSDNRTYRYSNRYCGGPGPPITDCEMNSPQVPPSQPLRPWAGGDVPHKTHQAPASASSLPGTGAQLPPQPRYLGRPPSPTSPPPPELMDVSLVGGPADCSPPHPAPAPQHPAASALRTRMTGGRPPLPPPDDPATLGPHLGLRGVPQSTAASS

RPS6KA1 KD1 KD2 (human) = RPS6KA1 KD1 KD2 (human) (UniProt Q15418)
DYRK2 (human) = DYRK2 (human) (UniProt Q92630)
CAMK2G (human) = CAMK2G (human) (UniProt Q13555)
CAMK1D (human) = CAMK1D (human) (UniProt Q8IU85)
MAPK8 (human) = MAPK8 (human) (UniProt P45983)
Chain of MAPK8 (human) (P45983 whole entry, looked up): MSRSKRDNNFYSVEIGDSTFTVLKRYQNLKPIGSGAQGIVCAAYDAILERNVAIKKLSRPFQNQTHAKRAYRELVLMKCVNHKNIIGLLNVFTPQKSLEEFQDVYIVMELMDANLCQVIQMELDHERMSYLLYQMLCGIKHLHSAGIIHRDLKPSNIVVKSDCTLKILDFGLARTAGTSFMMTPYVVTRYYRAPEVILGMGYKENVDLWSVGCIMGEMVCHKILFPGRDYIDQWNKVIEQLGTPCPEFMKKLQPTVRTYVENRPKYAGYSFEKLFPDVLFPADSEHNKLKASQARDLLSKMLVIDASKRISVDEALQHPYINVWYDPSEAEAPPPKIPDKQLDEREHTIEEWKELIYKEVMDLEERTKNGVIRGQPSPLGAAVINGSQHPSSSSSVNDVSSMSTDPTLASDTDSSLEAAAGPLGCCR

FGFR3 (human) = FGFR3 (human) (UniProt P22607)
NEK1 (human) = NEK1 (human) (UniProt Q96PY6)
MST4 (human) = MST4 (human) (UniProt Q9P289)
Chain of MST4 (human) (Q9P289 whole entry, looked up): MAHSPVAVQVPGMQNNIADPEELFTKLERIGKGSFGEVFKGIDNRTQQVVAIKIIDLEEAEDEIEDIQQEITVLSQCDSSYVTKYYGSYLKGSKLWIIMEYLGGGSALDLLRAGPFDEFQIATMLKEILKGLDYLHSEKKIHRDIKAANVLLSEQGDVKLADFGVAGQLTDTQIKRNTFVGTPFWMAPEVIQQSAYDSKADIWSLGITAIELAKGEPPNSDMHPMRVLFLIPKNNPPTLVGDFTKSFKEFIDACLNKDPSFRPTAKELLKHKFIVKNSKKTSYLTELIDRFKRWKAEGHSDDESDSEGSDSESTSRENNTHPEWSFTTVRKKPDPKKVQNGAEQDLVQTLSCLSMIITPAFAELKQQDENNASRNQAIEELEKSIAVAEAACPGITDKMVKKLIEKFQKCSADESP

ACVR1 (human) = ACVR1 (human) (UniProt Q04771)
HIPK1 (human) = HIPK1 (human) (UniProt Q86Z02)
PRKD2 (human) = PRKD2 (human) (UniProt Q9BZL6)
NTRK3 (human) = NTRK3 (human) (UniProt Q16288)
MINK1 (human) = MINK1 (human) (UniProt Q8N4C8)
DDR2 (human) = DDR2 (human) (UniProt Q16832)
GRK4 (human) = GRK4 (human) (UniProt P32298)
PRKG1 (human) = PRKG1 (human) (UniProt Q13976)
Chain of PRKG1 (human) (Q13976 whole entry, looked up): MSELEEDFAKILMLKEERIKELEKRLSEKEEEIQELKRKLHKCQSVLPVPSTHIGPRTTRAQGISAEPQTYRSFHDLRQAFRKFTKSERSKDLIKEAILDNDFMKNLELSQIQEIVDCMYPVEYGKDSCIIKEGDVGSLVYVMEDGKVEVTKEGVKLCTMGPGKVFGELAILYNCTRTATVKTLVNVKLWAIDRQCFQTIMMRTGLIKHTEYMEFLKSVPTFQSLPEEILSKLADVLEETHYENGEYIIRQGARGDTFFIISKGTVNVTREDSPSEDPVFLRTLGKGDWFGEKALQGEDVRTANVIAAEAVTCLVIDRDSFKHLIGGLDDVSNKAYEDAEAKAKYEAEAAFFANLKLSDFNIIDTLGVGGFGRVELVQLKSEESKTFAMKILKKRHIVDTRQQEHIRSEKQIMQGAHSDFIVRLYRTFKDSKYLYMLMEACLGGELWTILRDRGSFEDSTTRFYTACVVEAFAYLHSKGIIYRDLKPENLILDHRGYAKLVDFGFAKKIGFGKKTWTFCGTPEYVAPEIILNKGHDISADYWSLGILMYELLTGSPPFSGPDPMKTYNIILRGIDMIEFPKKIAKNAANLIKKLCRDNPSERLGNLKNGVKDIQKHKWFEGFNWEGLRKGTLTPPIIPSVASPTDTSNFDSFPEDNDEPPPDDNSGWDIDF

NEK7 (human) = NEK7 (human) (UniProt Q8TDX7)
Chain of NEK7 (human) (Q8TDX7 whole entry, looked up): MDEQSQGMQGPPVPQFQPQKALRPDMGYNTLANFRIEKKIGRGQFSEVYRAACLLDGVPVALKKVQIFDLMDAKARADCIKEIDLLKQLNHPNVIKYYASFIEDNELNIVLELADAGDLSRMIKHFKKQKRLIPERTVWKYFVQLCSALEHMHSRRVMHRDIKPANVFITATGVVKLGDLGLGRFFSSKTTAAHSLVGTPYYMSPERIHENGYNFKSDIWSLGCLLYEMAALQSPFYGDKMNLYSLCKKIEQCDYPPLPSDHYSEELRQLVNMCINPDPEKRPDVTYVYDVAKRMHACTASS

RPS6KB1 (human) = RPS6KB1 (human) (UniProt P23443)
EPHB3 (human) = EPHB3 (human) (UniProt P54753)
PRKD1 (human) = PRKD1 (human) (UniProt Q15139)
MET (human) = MET (human) (UniProt P08581)
MAPK12 (human) = MAPK12 (human) (UniProt P53778)
MAP3K3 (human) = MAP3K3 (human) (UniProt Q99759)
JAK3 JH1 JH2 (human) = JAK3 JH1 JH2 (human) (UniProt P52333)
Chain of JAK3 JH1 JH2 (human) (P52333 whole entry, looked up): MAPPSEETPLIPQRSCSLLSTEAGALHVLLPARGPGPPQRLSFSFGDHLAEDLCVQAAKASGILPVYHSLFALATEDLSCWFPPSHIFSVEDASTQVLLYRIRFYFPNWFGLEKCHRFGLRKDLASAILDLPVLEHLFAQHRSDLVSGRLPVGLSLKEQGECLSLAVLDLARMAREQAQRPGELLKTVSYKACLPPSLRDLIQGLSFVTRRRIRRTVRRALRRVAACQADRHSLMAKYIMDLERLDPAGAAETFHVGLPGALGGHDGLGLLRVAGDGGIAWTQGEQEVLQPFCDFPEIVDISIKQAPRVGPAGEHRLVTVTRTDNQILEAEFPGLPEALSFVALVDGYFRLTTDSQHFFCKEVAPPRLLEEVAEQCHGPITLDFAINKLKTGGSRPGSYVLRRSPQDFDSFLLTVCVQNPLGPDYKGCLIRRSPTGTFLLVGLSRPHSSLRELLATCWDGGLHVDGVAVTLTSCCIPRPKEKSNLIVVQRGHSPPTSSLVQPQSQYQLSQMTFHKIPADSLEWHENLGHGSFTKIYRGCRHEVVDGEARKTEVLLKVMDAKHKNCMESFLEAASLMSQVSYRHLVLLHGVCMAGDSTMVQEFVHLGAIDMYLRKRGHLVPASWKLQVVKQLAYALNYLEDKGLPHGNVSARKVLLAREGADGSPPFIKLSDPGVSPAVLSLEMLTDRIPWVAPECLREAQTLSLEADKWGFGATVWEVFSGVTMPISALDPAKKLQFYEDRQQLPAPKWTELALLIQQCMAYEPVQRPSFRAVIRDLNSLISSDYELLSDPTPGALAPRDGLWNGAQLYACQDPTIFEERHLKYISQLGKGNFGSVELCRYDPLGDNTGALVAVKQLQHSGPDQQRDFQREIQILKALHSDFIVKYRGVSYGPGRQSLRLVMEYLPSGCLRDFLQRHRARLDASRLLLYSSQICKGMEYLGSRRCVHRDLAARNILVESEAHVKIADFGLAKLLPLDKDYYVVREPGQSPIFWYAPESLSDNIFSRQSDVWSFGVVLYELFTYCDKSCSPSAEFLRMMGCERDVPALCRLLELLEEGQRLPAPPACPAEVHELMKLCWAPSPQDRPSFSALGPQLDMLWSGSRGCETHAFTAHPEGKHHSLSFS

EPHA2 (human) = EPHA2 (human) (UniProt P29317)
Chain of EPHA2 (human) (P29317 whole entry, looked up): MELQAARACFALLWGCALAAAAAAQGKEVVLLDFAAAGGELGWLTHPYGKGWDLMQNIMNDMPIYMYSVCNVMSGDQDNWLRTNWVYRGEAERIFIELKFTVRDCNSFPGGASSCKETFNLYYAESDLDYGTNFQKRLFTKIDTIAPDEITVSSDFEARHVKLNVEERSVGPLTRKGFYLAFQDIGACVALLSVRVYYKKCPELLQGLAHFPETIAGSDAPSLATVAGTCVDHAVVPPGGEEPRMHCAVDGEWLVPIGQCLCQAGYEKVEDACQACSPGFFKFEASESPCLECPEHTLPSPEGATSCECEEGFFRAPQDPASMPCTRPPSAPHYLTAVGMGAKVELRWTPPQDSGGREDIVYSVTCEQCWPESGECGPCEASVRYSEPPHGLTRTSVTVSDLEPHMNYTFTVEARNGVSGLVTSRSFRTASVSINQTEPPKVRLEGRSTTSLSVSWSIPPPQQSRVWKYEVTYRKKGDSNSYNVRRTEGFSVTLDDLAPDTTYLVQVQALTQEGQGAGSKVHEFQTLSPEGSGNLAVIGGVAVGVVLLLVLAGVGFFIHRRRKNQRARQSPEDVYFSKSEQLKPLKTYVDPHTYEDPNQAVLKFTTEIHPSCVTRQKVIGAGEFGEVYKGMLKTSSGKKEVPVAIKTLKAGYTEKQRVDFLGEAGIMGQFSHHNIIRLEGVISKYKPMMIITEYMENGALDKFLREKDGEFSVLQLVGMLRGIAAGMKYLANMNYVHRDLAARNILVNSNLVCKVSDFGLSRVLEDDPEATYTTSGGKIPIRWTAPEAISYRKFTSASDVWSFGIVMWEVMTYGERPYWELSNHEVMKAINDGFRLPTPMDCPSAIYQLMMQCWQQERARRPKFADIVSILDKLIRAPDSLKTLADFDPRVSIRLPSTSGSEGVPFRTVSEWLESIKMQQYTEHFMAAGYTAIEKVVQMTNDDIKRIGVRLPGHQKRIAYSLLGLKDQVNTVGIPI

MARK3 (human) = MARK3 (human) (UniProt P27448)
SLK (human) = SLK (human) (UniProt Q9H2G2)
PNCK (human) = PNCK (human) (UniProt Q6P2M8)
BRSK2 (human) = BRSK2 (human) (UniProt Q8IWQ3)
SRPK3 (human) = SRPK3 (human) (UniProt Q9UPE1)
MAPKAPK5 (human) = MAPKAPK5 (human) (UniProt Q8IW41)

Q: For `O=C1C(Cl)=C(N2C(=O)CCC2=O)C(=O)c2ccccc21`, which residual activity (TBK1 (human)) is on record?
A: 97.9%

Q: And the residual activity (HCK (human))?
A: 94.2%

Q: What about the residual activity (CSNK1A1 (human)) of the same compound?
A: 99.2%

Q: And the residual activity (PTK2 (human))?
A: 98.4%

Q: And the residual activity (PRKCZ (human))?
A: 114%

Q: What about the residual activity (NLK (human)) of the same compound?
A: 105%

Q: And the residual activity (CAMK1G (human))?
A: 98.2%

Q: What about the residual activity (PDGFRA (human)) of the same compound?
A: 109%

Q: What about the residual activity (NTRK1 (human)) of the same compound?
A: 97%

Q: And the residual activity (NEK11 (human))?
A: 101%

Q: And the residual activity (DYRK1B (human))?
A: 103%

Q: What about the residual activity (RPS6KA1 KD1 KD2 (human)) of the same compound?
A: 96.6%

Q: What about the residual activity (DYRK2 (human)) of the same compound?
A: 98.6%

Q: And the residual activity (CAMK2G (human))?
A: 104%

Q: And the residual activity (CAMK1D (human))?
A: 102%

Q: And the residual activity (MAPK8 (human))?
A: 122%

Q: What about the residual activity (FGFR3 (human)) of the same compound?
A: 106%

Q: What about the residual activity (NEK1 (human)) of the same compound?
A: 90%

Q: And the residual activity (MST4 (human))?
A: 98.3%

Q: And the residual activity (ACVR1 (human))?
A: 96.9%

Q: And the residual activity (HIPK1 (human))?
A: 104%

Q: What about the residual activity (PRKD2 (human)) of the same compound?
A: 95.7%

Q: And the residual activity (NTRK3 (human))?
A: 98.6%

Q: What about the residual activity (MINK1 (human)) of the same compound?
A: 95.6%

Q: And the residual activity (DDR2 (human))?
A: 95.8%

Q: And the residual activity (GRK4 (human))?
A: 97.6%

Q: And the residual activity (PRKG1 (human))?
A: 104% and 97.8%

Q: And the residual activity (NEK7 (human))?
A: 95.4%

Q: What about the residual activity (RPS6KB1 (human)) of the same compound?
A: 101%

Q: And the residual activity (EPHB3 (human))?
A: 97%

Q: What about the residual activity (PRKD1 (human)) of the same compound?
A: 104%

Q: What about the residual activity (MET (human)) of the same compound?
A: 109%

Q: And the residual activity (MAPK12 (human))?
A: 100%

Q: And the residual activity (MAP3K3 (human))?
A: 95.5%

Q: What about the residual activity (JAK3 JH1 JH2 (human)) of the same compound?
A: 101%

Q: And the residual activity (EPHA2 (human))?
A: 107%

Q: What about the residual activity (MARK3 (human)) of the same compound?
A: 87.8%

Q: And the residual activity (SLK (human))?
A: 104%

Q: What about the residual activity (PNCK (human)) of the same compound?
A: 100%

Q: What about the residual activity (BRSK2 (human)) of the same compound?
A: 100%

Q: And the residual activity (SRPK3 (human))?
A: 93.6%

Q: And the residual activity (MAPKAPK5 (human))?
A: 73.6%

Q: Which residual activity (TBK1 (human)) does the source give for `CC(C)(C)c1cc(C=C(C#N)C#N)cc(Br)c1O` here?
A: 90.2%

Q: And the residual activity (HCK (human))?
A: 66.1%

Q: And the residual activity (CSNK1A1 (human))?
A: 84.5%

Q: And the residual activity (PTK2 (human))?
A: 107%

Q: And the residual activity (PRKCZ (human))?
A: 102%

Q: What about the residual activity (NLK (human)) of the same compound?
A: 93.6%

Q: What about the residual activity (CAMK1G (human)) of the same compound?
A: 104%

Q: And the residual activity (PDGFRA (human))?
A: 95.4%

Q: And the residual activity (NTRK1 (human))?
A: 100%

Q: What about the residual activity (NEK11 (human)) of the same compound?
A: 87%

Q: And the residual activity (DYRK1B (human))?
A: 103%

Q: And the residual activity (RPS6KA1 KD1 KD2 (human))?
A: 104%

Q: And the residual activity (DYRK2 (human))?
A: 104%

Q: And the residual activity (CAMK2G (human))?
A: 104%

Q: And the residual activity (CAMK1D (human))?
A: 111%

Q: And the residual activity (MAPK8 (human))?
A: 90.4%

Q: And the residual activity (FGFR3 (human))?
A: 92.8%

Q: What about the residual activity (NEK1 (human)) of the same compound?
A: 97.7%

Q: What about the residual activity (MST4 (human)) of the same compound?
A: 95.2%

Q: What about the residual activity (ACVR1 (human)) of the same compound?
A: 102%

Q: And the residual activity (HIPK1 (human))?
A: 104%

Q: What about the residual activity (PRKD2 (human)) of the same compound?
A: 108%

Q: And the residual activity (NTRK3 (human))?
A: 104%

Q: And the residual activity (MINK1 (human))?
A: 111%

Q: What about the residual activity (DDR2 (human)) of the same compound?
A: 105%

Q: What about the residual activity (GRK4 (human)) of the same compound?
A: 101%

Q: And the residual activity (PRKG1 (human))?
A: 103% and 107%

Q: What about the residual activity (NEK7 (human)) of the same compound?
A: 89.5%

Q: What about the residual activity (RPS6KB1 (human)) of the same compound?
A: 91.3%

Q: And the residual activity (EPHB3 (human))?
A: 107%

Q: And the residual activity (PRKD1 (human))?
A: 100%

Q: What about the residual activity (MET (human)) of the same compound?
A: 111%

Q: And the residual activity (MAPK12 (human))?
A: 102%

Q: And the residual activity (MAP3K3 (human))?
A: 118%

Q: What about the residual activity (JAK3 JH1 JH2 (human)) of the same compound?
A: 110%

Q: What about the residual activity (EPHA2 (human)) of the same compound?
A: 105%

Q: And the residual activity (MARK3 (human))?
A: 105%

Q: What about the residual activity (SLK (human)) of the same compound?
A: 94.7%

Q: What about the residual activity (PNCK (human)) of the same compound?
A: 107%

Q: And the residual activity (BRSK2 (human))?
A: 94.5%

Q: And the residual activity (SRPK3 (human))?
A: 79.4%

Q: What about the residual activity (MAPKAPK5 (human)) of the same compound?
A: 97.4%

Q: How did the residual activity (TBK1 (human)) turn out when `c1ccc2c(-c3ccncc3)c[nH]c2c1` was run?
A: 93.4%

Q: What about the residual activity (HCK (human)) of the same compound?
A: 99.5%

Q: What about the residual activity (CSNK1A1 (human)) of the same compound?
A: 100%

Q: What about the residual activity (PTK2 (human)) of the same compound?
A: 97.7%

Q: And the residual activity (PRKCZ (human))?
A: 98.3%

Q: What about the residual activity (NLK (human)) of the same compound?
A: 95.1%

Q: And the residual activity (CAMK1G (human))?
A: 99%

Q: And the residual activity (PDGFRA (human))?
A: 95%

Q: What about the residual activity (NTRK1 (human)) of the same compound?
A: 97%

Q: What about the residual activity (NEK11 (human)) of the same compound?
A: 76.9%

Q: What about the residual activity (DYRK1B (human)) of the same compound?
A: 90.5%

Q: What about the residual activity (RPS6KA1 KD1 KD2 (human)) of the same compound?
A: 93.8%

Q: And the residual activity (DYRK2 (human))?
A: 77.5%

Q: And the residual activity (CAMK2G (human))?
A: 92.6%

Q: And the residual activity (CAMK1D (human))?
A: 107%

Q: And the residual activity (MAPK8 (human))?
A: 100%

Q: What about the residual activity (FGFR3 (human)) of the same compound?
A: 98.9%

Q: What about the residual activity (NEK1 (human)) of the same compound?
A: 101%

Q: What about the residual activity (MST4 (human)) of the same compound?
A: 104%

Q: What about the residual activity (ACVR1 (human)) of the same compound?
A: 94.7%

Q: What about the residual activity (HIPK1 (human)) of the same compound?
A: 97.4%

Q: And the residual activity (PRKD2 (human))?
A: 95.7%

Q: And the residual activity (NTRK3 (human))?
A: 100%

Q: What about the residual activity (MINK1 (human)) of the same compound?
A: 84.6%

Q: And the residual activity (DDR2 (human))?
A: 92.6%

Q: And the residual activity (GRK4 (human))?
A: 94.9%

Q: And the residual activity (PRKG1 (human))?
A: 64.8% and 77.7%

Q: And the residual activity (NEK7 (human))?
A: 104%

Q: And the residual activity (RPS6KB1 (human))?
A: 79.9%

Q: What about the residual activity (EPHB3 (human)) of the same compound?
A: 100%

Q: What about the residual activity (PRKD1 (human)) of the same compound?
A: 95.5%

Q: And the residual activity (MET (human))?
A: 91.4%

Q: What about the residual activity (MAPK12 (human)) of the same compound?
A: 104%

Q: And the residual activity (MAP3K3 (human))?
A: 103%

Q: What about the residual activity (JAK3 JH1 JH2 (human)) of the same compound?
A: 95.3%

Q: And the residual activity (EPHA2 (human))?
A: 106%

Q: What about the residual activity (MARK3 (human)) of the same compound?
A: 98%

Q: And the residual activity (SLK (human))?
A: 103%

Q: And the residual activity (PNCK (human))?
A: 98.5%

Q: And the residual activity (BRSK2 (human))?
A: 98.6%

Q: What about the residual activity (SRPK3 (human)) of the same compound?
A: 96%

Q: What about the residual activity (MAPKAPK5 (human)) of the same compound?
A: 96.1%
